Assay results from patent US11541065B2, “Compositions and methods for treating brain injury” (UNM RAINFOREST INNOVATIONS, priority 2018, dated 2023).

Assays:
[1] = test system: hyperhomocysteinemic rats subjected to MCAO; test: Adhesive removal test after MCAO; type: in vivo, male Wistar rats; conditions: HHcy rats, 9 days after MCAO, NVP-AAM077 1.2 mg/kg
Method: All rats were subjected to a battery of behavioral tests on day 7 (CatWalk), day 8 (cylinder and rotarod tests) and day 9 (adhesive test) after MCAO to evaluate normal gait, motor coordination and sensory motor functions. Habituation and training (3 days) was performed for one week before MCAO. The first two trainings days were before osmotic pump implantation and the third training day was after pump implantation. An experienced observer blinded to the experimental conditions evaluated all behavioral parameters.
Adhesive removal test: Sensorimotor deficits following stroke was assessed by performing the adhesive removal test in control, hyperhomocysteinemic and NVP-AAM077 treated hyperhomocysteinemic rats. A small adhesive patch (7 mm×3 mm) was applied to the contralateral forepaw of each rat with equal pressure and the time taken to notice the presence of the patch (time to contact) and to remove it (time to remove) was recorded (Bouet et al., 2009, Nat Protoc 4:1560-1564). The time taken to notice the patch was recorded from the moment of placing the patch until the paw was shaken or touched by mouth. The time taken to remove the patch was recorded from the moment the mouth touched the paw to the time the patch was removed. The trial ended after the adhesive patch was removed or a maximum latency of three minutes. […]

ERK MAPK = ERK MAPK phosphorylation in ipsilateral cortex after MCAO (immunoblot); type: in vivo, Wistar rats; conditions: HHcy rats, MCAO 60 min, three hours of reperfusion, vs vehicle treated rats
Method: FIG. 10. ERK MAPK phosphorylation. (A) Control and hyperhomocysteinemic (HHcy) rats were subjected to MCAO for 60 min followed by reperfusion (sham, 0, 3, 6, 12 h). Cortical tissue lysates from the ipsilateral hemisphere were analyzed by immunoblotting, using anti-pERK and anti-ERK antibodies. (B) Control, HHcy and HHcy rats treated with NVP-AAM077 (HHcy+NVP) were subjected to MCAO for 60 min followed by reperfusion for 3 h. Cortical tissue lysates from the ipsilateral hemisphere were analyzed by immunoblotting, using anti-pERK and anti-ERK antibodies. The extent of ERK MAPK phosphorylation was quantified using computer-assisted densitometry and Image J analysis. Values are mean±SEM (n=5). (A) *p<0.001 from corresponding control. (B) *p<0.001 from HHcy.
Next, whether a mild ischemic insult under hyperhomocysteinemic condition could lead to prolonged increase in ERK MAPK phosphorylation was evaluated using a middle cerebral artery occlusion (MCAO) model. Normal and hyperhomocysteinemic Wistar rats were subjected to MCAO for 60 minutes followed by reperfusion for specified time periods (0, 3, 6, 12 h). […] NVP-AM077, however, blocks the prolonged phosphrylation of ERK MAPK in hyperhomocysteinemic rats at three hours of reperfusion. […]

PGE2 = PGE2 release from WT and GluN2A-KO mouse neuronal cultures; type: cell-based, mice; conditions: homocysteine 50 μM, four hours
Method: Neuron cultures were treated with or without L-homocysteine in the presence or absence of pharmacological inhibitors for the time period specified in each experiment. The medium was collected from each experimental plate and centrifuged at 1000 rpm for five minutes to remove cellular debris. Equal amounts (100 μl) of the supernatant from each sample were used to determine the amount of PGE2 using the PGE2 enzyme immunoassay kit according to the manufacturer's instructions. For measurement of cPLA2 activity, the neuronal cells from the above treated conditions were harvested in ice-cold Tris-buffered saline (pH7.4) containing sodium pyrophosphate as phosphatase inhibitor, sonicated three times with five-second bursts and two minutes on ice between intervals. The lysed cell suspensions were centrifuged at 10,000 rpm for 10 minutes and the supernatant removed. Equal amounts of protein from the supernatant (assessed using BCA protein estimation kit) were estimated for activity of cPLA2 using cPLA2 activity assay kit according to the manufacturer's protocol.
For measurement of PGE2 levels and MCP-1 levels released from neurons, culture medium was collected from each experimental plate and centrifuged at 1000 rpm for five minutes to remove cellular debris. […]

SMILES	time to contact adhesive tape, contralateral forepaw ([1]; untreated HHcy 76.82±5.45 s) [s]	time to remove adhesive tape, contralateral forepaw ([1]; untreated HHcy 127.86±7.29 s) [s]	ERK MAPK phosphorylation in ipsilateral cortex (ERK MAPK)	PGE2 release (PGE2; GluN2A-KO mice cultures)	PGE2 release (PGE2; WT mice cultures)
C[C@H](NC(c1cccc2[nH]c(=O)c(=O)[nH]c12)P(=O)(O)O)c1ccc(Br)cc1 (stereo partly drawn) [NVP-AAM077, ({[(1S)-1-(4-bromophenyl)ethyl]amino}-(2,3-dioxo-1,4-dihydroquinoxalin-5-yl)methyl)phosphonic acid]	31.18 ± 5.68	44.24 ± 7.59	significant reduction ERK MAPK phosphorylation	–	–
N[C@@H](CCS)C(=O)O [L-homocysteine]	–	–	–	fails to induce PGE2 release	significantly increases PGE2 release
